Experimental data reported in patent publication US11439707B2, “Hypocrellin derivative substituted both in a peri-position and in 2-position by amino, preparation method, and application thereof” (priority 2017, dated 2022).

Legend:
[1] = singlet oxygen efficiency test, reference rose bengal; format: physicochemical
[2] = absorption spectrum (maximum absorption wavelength, molar extinction coefficient); format: physicochemical

SMILES | singlet oxygen yield [1] | maximum absorption wavelength [2] | molar extinction coefficient [2]
COc1c(O)c2c(=O)cc(OC)c3c4c(OC)cc(=O)c5c(NCC[N+]67CC[N+](C)(CC6)CC7)c(NCC[N+]67CC[N+](C)(CC6)CC7)c6c(c(c1C(C(C)=O)C(C)=C6)c23)c54 (stereo not drawn) [HB-41a] | 31% | 622 nm | 32,500 M^−1cm^−1
COCCOCCC(=O)OCCOCCNc1c(NCCOCCOC(=O)CCOCCOC)c2c(=O)cc(OC)c3c4c(OC)cc(=O)c5c(O)c(OC)c6c(c(c1C=C(C)C6)c23)c54 [HC-1a-PEG1] | 32% | 622 nm | 30,500 M^−1cm^−1
COCCOCCOCCOCCOCCOCCOC(=O)CCCNc1c(O)c2c(=O)cc(OC)c3c4c(OC)cc(=O)c5c(NCCCC(=O)OCCOCCOCCOCCOCCOCCOC)c(OC)c6c(c(c1C=C(C)C6)c23)c54 [HC-8b-PEG6] | 32% | 624 nm | 30,000 M^−1cm^−1
COc1c2c3c4c(c(NCCCC(=O)OCCCCCC[N+](C)(C)C)c(=O)c5c(NCCCC(=O)OCCCCCC[N+](C)(C)C)cc(OC)c(c6c(OC)cc(O)c(c1=O)c63)c54)C=C(C)C2 [HC-8c-C6-N^+] | 35% | 632 nm | 32,500 M^−1cm^−1
CCNc1c(NC2CCCC2)c2c(=O)c(SCCO)c(OC)c3c4c(OC)cc(=O)c5c(O)c(OC)c6c(c(c1C=C(C)C6C(C)=O)c23)c54 (stereo not drawn) [HB-S-44a] | 20% | 628 nm | 21,500 M^−1cm^−1
COCCOCCOCCOCCOCCOCCOCCOCCOCCOCCOCCOCCOCCN1C(=O)CN(C(=O)OCCNc2c3c4c5c(c(OC)c(=O)c6c(NCCOC(=O)N7CC(=O)N(CCOCCOCCOCCOCCOCCOCCOCCOCCOCCOCCOCCOCCOC)C(=O)C7)cc(OC)c(c7c(OC)cc(O)c(c2=O)c74)c65)C(C(C)=O)C(C)=C3)CC1=O (stereo not drawn) [HB-40d-PEG12] | 30% | 628 nm | 30,500 M^−1cm^−1
COCCOCCC(=O)OCCOCCNc1c(NCCOCCOC(=O)CCOCCOC)c2c(=O)cc(OC)c3c4c(OC)cc(=O)c5c(O)c(OC)c6c(c(c1C=C(C)C6C(C)=O)c23)c54 (stereo not drawn) [HB-1a-PEG1] | 35% | 625 nm | 31,000 M^−1cm^−1
COCCOCCC(=O)OC1CCC(Nc2c(NC3CCC(OC(=O)CCOCCOC)C3)c3c(=O)cc(OC)c4c5c(OC)cc(=O)c6c(O)c(OC)c7c(c(c2C=C(C)C7C(C)=O)c34)c65)C1 (stereo not drawn) [HB-20a-PEG1] | 30% | 624 nm | 31,000 M^−1cm^−1
COCCOCCOCCOCCOCCOCCOCCOCCOCCNC(=O)C1CCC(CNc2c3c4c5c(c(OC)c(=O)c6c(NCC7CCC(C(=O)NCCOCCOCCOCCOCCOCCOCCOCCOCCOC)CC7)cc(OC)c(c7c(OC)cc(O)c(c2=O)c74)c65)CC(C)=C3)CC1 (stereo not drawn) [HC-13d-NH-PEG8] | 30% | 625 nm | 32,500 M^−1cm^−1
COc1c(O)c2c(=O)cc(OC)c3c4c(OC)cc(=O)c5c(NC6CCC(O)C6)c(NC6CCC(O)C6)c6c(c(c1C(C(C)=O)C(C)=C6)c23)c54 (stereo not drawn) [HB-20a] | 20% | 624 nm | 24,500 M^−1cm^−1
COCCOCCOCCOCCOCCOCCOCCC(=O)N1CCC(CNc2c3c4c5c(c(OC)c(=O)c6c(O)cc(OC)c(c7c(OC)c(Br)c(NCC8CCN(C(=O)CCOCCOCCOCCOCCOCCOCCOC)CC8)c(c2=O)c47)c65)C(C(C)=O)C(C)=C3)CC1 (stereo not drawn) [HB-31c-Br-PEG6] | 38% | 631 nm | 33,000 M^−1cm^−1
COc1c(NCC2CCC(C(=O)NCCCCS(=O)(=O)O)CC2)c2c(=O)cc(OC)c3c4c(OC)cc(=O)c5c(O)c(NCC6CCC(C(=O)NCCCCS(=O)(=O)O)CC6)c6c(c(c1CC(C)=C6)c23)c54 (stereo not drawn) [HC-13b-C4-SO3H] | 32% | 622 nm | 30,000 M^−1cm^−1
COc1c2c3c4c(c(NO)c(=O)c5c(O)cc(OC)c(c6c(OC)cc(NO)c(c1=O)c63)c54)C=C(C)C2 [HC-37d] | 33% | 620 nm | 32,000 M^−1cm^−1
COCCOCCOCCOCCOCCOCCOCCOCCOCCOCCOCCOCCOCCC(=O)OCCNc1c2c3c4c(c(OC)c(=O)c5c(O)cc(OC)c(c6c(OC)cc(NCCOC(=O)CCOCCOCCOCCOCCOCCOCCOCCOCCOCCOCCOCCOCCOC)c(c1=O)c63)c54)CC(C)=C2 [HC-2c-PEG12] | 34% | 630 nm | 32,500 M^−1cm^−1
COc1c(NC(CS)C(=O)O)c2c(=O)cc(OC)c3c4c(OC)cc(=O)c5c(O)c(NC(CS)C(=O)O)c6c(c(c1C(C(C)=O)C(C)=C6)c23)c54 (stereo not drawn) [HB-25b] | 20% | 629 nm | 20,500 M^−1cm^−1
COc1c(NCC[N+]23CC[N+](C)(CC2)CC3)c2c(=O)cc(OC)c3c4c(OC)cc(=O)c5c(O)c(NCC[N+]67CC[N+](C)(CC6)CC7)c6c(c(c1C(C(C)=O)C(C)=C6)c23)c54 (stereo not drawn) [HB-41b] | 32% | 624 nm | 31,500 M^−1cm^−1
COc1c(O)c2c(=O)cc(OC)c3c4c(OC)cc(=O)c5c(NCC(=O)O)c(NCC(=O)O)c6c(c(c1C(C(C)=O)C(C)=C6)c23)c54 (stereo not drawn) [HB-7a] | 28% | 620 nm | 26,500 M^−1cm^−1

SMILES | singlet oxygen yield [1] | maximum absorption wavelength [2] | molar extinction coefficient [2]
COc1c(NCCCC(=O)OCCCC[N+](C)(C)C)c2c(=O)cc(OC)c3c4c(OC)cc(=O)c5c(O)c(NCCCC(=O)OCCCC[N+](C)(C)C)c6c(c(c1CC(C)=C6)c23)c54 [HC-8b-C4-N^+] | 32% | 625 nm | 31,000 M^−1cm^−1
COc1c2c3c4c(c(NCCCS(=O)(=O)O)c(=O)c5c(O)cc(OC)c(c6c(OC)cc(NCS(=O)(=O)O)c(c1=O)c63)c54)C=C(C)C2 [HC-45d] | 21% | 624 nm | 21,000 M^−1cm^−1
COc1c(O)c2c(=O)cc(OC)c3c4c(OC)cc(=O)c5c(NC6CCC(O)CC6)c(NC6CCC(O)CC6)c6c(c(c1C(C(C)=O)C(C)=C6)c23)c54 (stereo not drawn) [HB-17a] | 22% | 617 nm | 25,000 M^−1cm^−1
COc1c2c3c4c(c(NC(C(=O)O)C(C)C)c(=O)c5c(O)cc(OC)c(c6c(OC)cc(NC(C(=O)O)C(C)C)c(c1=O)c63)c54)C=C(C)C2C(C)=O (stereo not drawn) [HB-22d] | 22% | 625 nm | 21,500 M^−1cm^−1
COc1c(O)c2c(=O)cc(OC)c3c4c(OC)cc(=O)c5c(NCCCC(=O)NCC[N+](C)(C)C)c(NCCCC(=O)NCC[N+](C)(C)C)c6c(c(c1CC(C)=C6)c23)c54 [HC-8a-NH—C2-N^+] | 29% | 622 nm | 30,000 M^−1cm^−1
COc1c2c3c4c(c(NC(CC(N)=O)C(=O)O)c(=O)c5c(O)cc(OC)c(c6c(OC)cc(NC(CC(N)=O)C(=O)O)c(c1=O)c63)c54)C=C(C)C2C(C)=O (stereo not drawn) [HB-26d] | 16% | 622 nm | 20,500 M^−1cm^−1
COc1c2c3c4c(c(NC5CCC(O)CC5)c(=O)c5c(O)cc(OC)c(c6c(OC)cc(NC7CCC(O)CC7)c(c1=O)c63)c54)C=C(C)C2C(C)=O (stereo not drawn) [HB-17d] | 22% | 624 nm | 25,000 M^−1cm^−1
COc1c2c3c4c(c(NC5CCCC(C(=O)O)C5)c(=O)c5c(O)cc(OC)c(c6c(OC)cc(NC7CCCC(C(=O)O)C7)c(c1=O)c63)c54)C=C(C)C2C(C)=O (stereo not drawn) [HB-15d] | 24% | 623 nm | 27,000 M^−1cm^−1
COc1c(O)c2c(=O)cc(OC)c3c4c(OC)c(Br)c(=O)c5c(NCCNCCOCCO)c(NCCNCCOCCO)c6c(c(c1C(C(C)=O)C(C)=C6)c23)c54 (stereo not drawn) [HB-5a-Br-PEG1] | 28% | 622 nm | 30,500 M^−1cm^−1
COCCOCCOCCOCCOC(=O)C1CCC(CNc2c3c4c5c(c(OC)c(=O)c6c(O)cc(OC)c(c7c(OC)cc(NCC8CCC(C(=O)OCCOCCOCCOCCOC)CC8)c(c2=O)c74)c65)C(C(C)=O)C(C)=C3)CC1 (stereo not drawn) [HB-13c-PEG4] | 38% | 630 nm | 32,500 M^−1cm^−1
COCCOCCC(=O)OCCOCCNc1c(NCCCC(=O)O)c2c(=O)cc(OC)c3c4c(OC)cc(=O)c5c(O)c(OC)c6c(c(c1C=C(C)C6C(C)=O)c23)c54 (stereo not drawn) [HB-48a-PEG1] | 32% | 628 nm | 31,500 M^−1cm^−1
COc1c2c3c4c(c(NO)c(=O)c5c(NO)cc(OC)c(c6c(OC)cc(O)c(c1=O)c63)c54)C=C(C)C2 [HC-37c] | 36% | 624 nm | 34,000 M^−1cm^−1
CCNc1c2c3c4c(c(OC)c(=O)c5c(O)cc(OC)c(c6c(OC)c(SCCO)c(NC7CCCC7)c(c1=O)c36)c54)C(C(C)=O)C(C)=C2 (stereo not drawn) [HB-S-44c] | 20% | 628 nm | 21,000 M^−1cm^−1
COCCOCCNC(=O)C1CCC(CNc2c(NCC3CCC(C(=O)NCCOCCOC)CC3)c3c(=O)cc(OC)c4c5c(OC)cc(=O)c6c(O)c(OC)c7c(c(c2C=C(C)C7)c34)c65)CC1 (stereo not drawn) [HC-13a-NH-PEG1] | 32% | 624 nm | 30,000 M^−1cm^−1
COc1c(O)c2c(=O)cc(OC)c3c4c(OC)cc(=O)c5c(NCCC(=O)O)c(NCCC(=O)O)c6c(c(c1C(C(C)=O)C(C)=C6)c23)c54 (stereo not drawn) [HB-10a] | 32% | 620 nm | 31,000 M^−1cm^−1
CCNc1c(NC2CCCC2)c2c(=O)cc(OC)c3c4c(OC)cc(=O)c5c(O)c(OC)c6c(c(c1C=C(C)C6C(C)=O)c23)c54 (stereo not drawn) [HB-44a] | 20% | 628 nm | 21,500 M^−1cm^−1
